From paper PMC11984392, “EphA2-targeted alpha-particle theranostics for enhancing PDAC treatment” (Theranostics, 2025)
Read-outs that look alike come from different tables or passages of the source. *1 amine or outer side, *2 acyl side, *3 side chain or, on linkers, in order; H or OH if unused. Where a SMILES comes first, the peptide text is derived from it. Bridges are numbered along the chain shown (N, C = ends). [ ]: non-standard residue; d: D form. The star is where a group is joined. TATA = O=C(CC[*:1])N1CN(C(=O)CC[*:2])CN(C(=O)CC[*:3])C1; NOTA = O=C(O)CN1CCN(CC(=O)O)CCN(CC(=O)*)CC1; Hyp = O=C(O)[C@@H]1C[C@@H](O)CN1; hArg = N=C(N)NCCCC[C@H](N)C(=O)O; PEG2 = NCCOCCOCCC(=O)O; Sar = CNCC(=O)O

Tests used:
[1] = In vitro stability of radiotracers in saline / formulation buffer; format: physicochemical; conditions: 37 °C, radio-RP-HPLC
Experimental: The stability of the radiotracers was assessed in saline and human serum at 37 °C to mimic physiological conditions. Approximately 1.5 mCi of the radiotracer, prepared in 100-150 µL of saline, was added to 0.5 mL of either saline or human serum in separate microcentrifuge tubes. The mixtures were gently vortexed and then incubated at 37 °C in an incubator. At predetermined time-points (1, 2, and 3 h), 100 µL aliquots were collected from the incubation mixtures for analysis. For serum samples, proteins were removed by adding 100 µL of saline and 50 µL of ethanol, followed by ultrafiltration using 10 kDa centrifugal filters made of regenerative cellulose membranes. The filtration process was performed by centrifugation at 14,000 rpm for 10 min and repeated once more to ensure complete protein removal. The filtrate was collected for analysis. The radiochemical integrity of the radiotracer in both saline and serum was evaluated using radio-RP-HPLC.

Ex vivo biodistribution = format: in vivo, NSG mice; conditions: both sexes, NSG, mouse, total radioactivity, 60 min p.i., mean ± SEM (n = 4 or 5)
Experimental: Animal studies were performed under Johns Hopkins University Animal Care and Use Committee (ACUC)-approved protocol (Principal investigator: Sridhar Nimmagadda, Ph.D. and Protocol number M021M175). Male and Female NSG mice (5-6 weeks old) were purchased from JHU immunocompromised core and used to establish xenografts by administering cells subcutaneously (top right flank, unless otherwise noted) to form various tumor models within 3-4 weeks. Following cell numbers were used: Panc1, AsPC1, BxPC3 (1 M), Hs766T and SU8686 (2 M), CFPAC and Panc1005 (5 M). Imaging or biodistribution studies (n = 3-5) were conducted on mice with tumor volumes of 100-200 mm^3. The Panc1 orthotopic tumor model was established by surgically implanting a 3-5 mm^3 section of Panc1 tumor xenograft directly onto the pancreas. The implanted tumors were allowed to grow and were ready for imaging after 10 days of implantation.
Mice with 100-200 mm^3 tumor volume were used for ex vivo biodistribution studies. For radiotracer pharmacokinetics and dosimetry studies, mice with Panc1 tumor xenograft received ~80 µCi (2.96 MBq) [^68Ga]AJ201 and were sacrificed at pre-determined time points (5, 30, 60, 90 and 120 min). All other mice were injected with ~50 µCi (1.85 MBq; 0.2 to 0.5 nmol) Ga-68 labeled radiotracer and were sacrificed at 60 min. The selected tissues were collected, weighed, counted, and their %ID/g values calculated for biodistribution analysis. For pharmacokinetics and dosimetry studies, selected tissues included blood, muscle, tumor, thymus, heart, lung, liver, pancreas, stomach, small intestine, large intestine, spleen, adrenals, kidney, bladder, femur, brain and tumor xenografts. For other studies, selected tissues were blood, muscle, tumor, heart, lung, liver, pancreas, small intestine, spleen, kidney.

CC(C)C[C@@H]1NC(=O)[C@@H]2CSCCC(=O)N3CN(CN(C3)C(=O)CCSC[C@H](NC(=O)[C@H](CC(=O)O)NC(=O)[C@H](CCCCNC(=N)N)NC(=O)[C@H](C)NC(=O)CNC(=O)CN(C)C(=O)CN(C)C(=O)CN(C)C(=O)[C@H](CCCNC(=N)N)NC(=O)CNC(=O)CCOCCOCCNC(=O)CN3CCN(CC(=O)O)CCN(CC(=O)O)CC3)C(=O)N3C[C@H](O)C[C@H]3C(=O)N[C@@H](CC(C)C)C(=O)N[C@@H](C(C)C)C(=O)N[C@@H](CC(N)=O)C(=O)N3CCC[C@H]3C(=O)N[C@@H](CC(C)C)C(=O)N2)C(=O)CCSC[C@@H](C(N)=O)NC(=O)[C@H](CCCCNC(=N)N)NC(=O)[C@H](Cc2c[nH]c3ccccc23)NC(=O)[C@@H](CC(=O)O)NC(=O)[C@@H]2CCCN2C(=O)[C@H](Cc2c[nH]cn2)NC1=O [[^68Ga]AJ201, metal not drawn] ({NOTA-PEG2}-GR[Sar][Sar][Sar]GA[hArg]DC[Hyp]LVNPLCLHP[dD]W[hArg]C-NH2; linker 10-17-24 via TATA)
Time of stability in formulation buffer ([1]; 10% EtOH/saline): at least 3 h | Stability in saline (radio-HPLC finding) ([1]; saline, up to 3 h, ~1.5 mCi in 0.5 mL): stable without noticeable degradation or impurity formation | tissue uptake at 1 h (Ex vivo biodistribution; blood, AsPC1 xenograft, read-out: Blood uptake): 3.32 ± 0.24 %ID/g | tissue uptake at 1 h (Ex vivo biodistribution; blood, BxPC3 xenograft, read-out: Blood uptake): 0.58 ± 0.04 %ID/g | tissue uptake at 1 h (Ex vivo biodistribution; blood, CFPAC xenograft, read-out: Blood uptake): 0.69 ± 0.21 %ID/g | tissue uptake at 1 h (Ex vivo biodistribution; blood, Hs766T xenograft, read-out: Blood uptake): 1.39 ± 0.3 %ID/g | tissue uptake at 1 h (Ex vivo biodistribution; blood, Panc1005 xenograft, read-out: Blood uptake): 0.44 ± 0.05 %ID/g | tissue uptake at 1 h (Ex vivo biodistribution; blood, Su8686 xenograft, read-out: Blood uptake): 0.71 ± 0.18 %ID/g | tissue uptake at 1 h (Ex vivo biodistribution; heart, AsPC1 xenograft, read-out: Heart uptake): 1.25 ± 0.1 %ID/g | tissue uptake at 1 h (Ex vivo biodistribution; heart, CFPAC xenograft, read-out: Heart uptake): 0.34 ± 0.08 %ID/g | tissue uptake at 1 h (Ex vivo biodistribution; heart, Hs766T xenograft, read-out: Heart uptake): 0.9 ± 0.25 %ID/g | tissue uptake at 1 h (Ex vivo biodistribution; heart, Panc1005 xenograft, read-out: Heart uptake): 0.2 ± 0.02 %ID/g | tissue uptake at 1 h (Ex vivo biodistribution; heart, Su8686 xenograft, read-out: Heart uptake): 0.25 ± 0.06 %ID/g | tissue uptake at 1 h (Ex vivo biodistribution; kidney, AsPC1 xenograft, read-out: Kidney uptake): 59.6 ± 2.86 %ID/g | tissue uptake at 1 h (Ex vivo biodistribution; kidney, BxPC3 xenograft, read-out: Kidney uptake): 59 ± 7.17 %ID/g | tissue uptake at 1 h (Ex vivo biodistribution; kidney, CFPAC xenograft, read-out: Kidney uptake): 69.1 ± 4.56 %ID/g | tissue uptake at 1 h (Ex vivo biodistribution; kidney, Hs766T xenograft, read-out: Kidney uptake): 52.6 ± 4.07 %ID/g | tissue uptake at 1 h (Ex vivo biodistribution; kidney, Panc1005 xenograft, read-out: Kidney uptake): 67 ± 6.9 %ID/g | tissue uptake at 1 h (Ex vivo biodistribution; kidney, Su8686 xenograft, read-out: Kidney uptake): 37.7 ± 2.64 %ID/g | tissue uptake at 1 h (Ex vivo biodistribution; liver, AsPC1 xenograft, read-out: Liver uptake): 1.59 ± 0.07 %ID/g | tissue uptake at 1 h (Ex vivo biodistribution; liver, BxPC3 xenograft, read-out: Liver uptake): 0.42 ± 0.02 %ID/g | tissue uptake at 1 h (Ex vivo biodistribution; liver, CFPAC xenograft, read-out: Liver uptake): 0.43 ± 0.09 %ID/g | tissue uptake at 1 h (Ex vivo biodistribution; liver, Hs766T xenograft, read-out: Liver uptake): 0.89 ± 0.21 %ID/g | tissue uptake at 1 h (Ex vivo biodistribution; liver, Panc1005 xenograft, read-out: Liver uptake): 0.29 ± 0.03 %ID/g | tissue uptake at 1 h (Ex vivo biodistribution; liver, Su8686 xenograft, read-out: Liver uptake): 0.34 ± 0.06 %ID/g | tissue uptake at 1 h (Ex vivo biodistribution; lung, AsPC1 xenograft, read-out: Lung uptake): 2.78 ± 0.13 %ID/g | tissue uptake at 1 h (Ex vivo biodistribution; lung, BxPC3 xenograft, read-out: Lung uptake): 0.7 ± 0.04 %ID/g | tissue uptake at 1 h (Ex vivo biodistribution; lung, CFPAC xenograft, read-out: Lung uptake): 0.89 ± 0.2 %ID/g | tissue uptake at 1 h (Ex vivo biodistribution; lung, Hs766T xenograft, read-out: Lung uptake): 1.71 ± 0.55 %ID/g | tissue uptake at 1 h (Ex vivo biodistribution; lung, Panc1005 xenograft, read-out: Lung uptake): 0.54 ± 0.05 %ID/g | tissue uptake at 1 h (Ex vivo biodistribution; lung, Su8686 xenograft, read-out: Lung uptake): 0.76 ± 0.16 %ID/g | tissue uptake at 1 h (Ex vivo biodistribution; muscle, AsPC1 xenograft, read-out: Muscle uptake): 0.41 ± 0.03 %ID/g | tissue uptake at 1 h (Ex vivo biodistribution; muscle, BxPC3 xenograft, read-out: Muscle uptake): 0.18 ± 0.01 %ID/g | tissue uptake at 1 h (Ex vivo biodistribution; muscle, Hs766T xenograft, read-out: Muscle uptake): 0.46 ± 0.13 %ID/g | tissue uptake at 1 h (Ex vivo biodistribution; muscle, Panc1005 xenograft, read-out: Muscle uptake): 0.11 ± 0.01 %ID/g | tissue uptake at 1 h (Ex vivo biodistribution; muscle, Su8686 xenograft, read-out: Muscle uptake): 0.16 ± 0.04 %ID/g | tissue uptake at 1 h (Ex vivo biodistribution; pancreas, AsPC1 xenograft, read-out: Pancreas uptake): 0.65 ± 0.04 %ID/g | tissue uptake at 1 h (Ex vivo biodistribution; pancreas, BxPC3 xenograft, read-out: Pancreas uptake): 0.25 ± 0.02 %ID/g | tissue uptake at 1 h (Ex vivo biodistribution; pancreas, CFPAC xenograft, read-out: Pancreas uptake): 0.32 ± 0.07 %ID/g | tissue uptake at 1 h (Ex vivo biodistribution; pancreas, Hs766T xenograft, read-out: Pancreas uptake): 0.61 ± 0.22 %ID/g | tissue uptake at 1 h (Ex vivo biodistribution; pancreas, Panc1005 xenograft, read-out: Pancreas uptake): 0.21 ± 0.03 %ID/g
